Measured values reported in patent US20260200964A1, “MONOSACCARIDES, PHARMACEUTICAL COMPOSITIONS, AND DIAGNOSTIC AND THERAPEUTIC APPLICATIONS” (Surio Therapeutics Co., LTD., priority 2022, published 2026).

What was measured:
[1] = tested on: A549 cells; test: Flow cytometry analysis of cell labeling (azido labeling efficiency); type: cell-based; settings: Homo sapiens; A549 cells (lung); azido compound 25 μM, 48 h; mean fluorescence of live cells compared with PBS negative control
Procedure: (§1) Cells (2.0×10^6 cells/mL, 2 mL) were seeded in a 6-well culture plate and attached at 37° C. overnight. After washed thrice with PBS, the cells were incubated with an azido compound (25 μM) at 37° C. for 48 h. After washed thrice with PBS, the cells were incubated with DBCO-biotin (50 μM) in 500 μL serum free DMEM at 37° C. for 1 h. The cells were washed thrice with PBS and then incubated with streptavidin-Cy5 (5 μg/mL) in 500 μL serum free DMEM at 37° C. for 1 h. The cells were washed thrice with PBS, followed by addition of 300 μL 1×trypsin/EDTA for digestion. The lifted cells were transferred to a 1.5 mL EP tube, centrifuge at 1,000 rpm for 3 min, and washed with PBS once. Finally, 500 μL PBS containing 4% PFA was added to the cell pellet to fix the cells. The cell suspension was transferred to a flow tube and mixed with 10 μL of a PI working solution (50 μg/mL) at room temperature for 30 min before being subjected to flow cytometry.
(§2) Flow cytometry was used to characterize the labeling efficiency of a compound provided herein. After cells were labeled with an azido group, DBCO-biotin was added to specifically react with the azido group. Avidin-Cy5 was added bind to the cell surface biotin for a flow cytometry analysis. Dead cells were stained with PI and excluded from the analysis. Results were presented as the mean fluorescence of live cells, compared with PBS as a negative control and Ac4ManNAz (AAM) as a positive control, Ac4ManNAz (AAM, CAS: 361154-30-5).

[2] = tested on: MDA-MB-231; test: as above; type: cell-based; settings: MDA-MB-231 (breast), azido compound 25 μM, 48 h
Procedure: as §1, §2

[3] = tested on: OVCAR3; test: as above; type: cell-based; settings: OVCAR3 (ovarian), azido compound 25 μM, 48 h
Procedure: as §1, §2

[4] = Compound stability in a biological matrix (mouse plasma); type: in vitro ADME; settings: 10 μg/mL, 37° C., LC-MS/MS
Procedure: (§3) A compound was dissolved in DMSO as a 1 mg/mL stock solution. An ACN solution of the compound at 100 μg/mL was prepared from the stock solution, 10 μL of which was added to a biological matrix (90 μL) to the final concentration of 10 μg/mL for the compound. The mixtures of the compound in a biological matrix were incubated at 37° C. for 0, 0.5, 1, or 4 h. At each time point, ACN (900 μL) was added to a mixture. After the mixture was centrifuged at 15,000 rpm for 5 min, the supernatant was mixed with the same volume of H2O (1% TFA) and then analyzed by LC-MS/MS. The results are summarized in Table 3, wherein Cbz-AAM is (2R,3S,4R,5S)-6-((4-((S)-6-acetamido-2-(((benzyloxy)carbonyl)amino)hexan-amido)phenyl)(phenyl)methoxy)-2-(acetoxymethyl)-5-(2-azidoacetamido)tetrahydro-2H-pyran-3,4-diyl diacetate.

[5] = Compound stability in a biological matrix (human plasma); type: in vitro ADME; settings: 10 μg/mL, 37° C., LC-MS/MS
Procedure: as §3

[6] = mean fluorescence of live cells compared with Ac4ManNAz (AAM) positive control
[7] = mean fluorescence of live cells compared with PBS negative control

| Compound Remaining (%) Mouse 1 h [4] [%] | Compound Remaining (%) Mouse 4 h [4] [%] | Compound Remaining (%) Human 1 h [5] [%] | Compound Remaining (%) Human 4 h [5] [%] | SMILES | activity at 25 µM [1] [%] | Labeling Efficiency AAM % [2, 6] [%] | Labeling Efficiency PBS % [2, 7] [%] | Labeling Efficiency AAM % [3, 6] [%] | Labeling Efficiency PBS % [3, 7] [%] |
| --- | --- | --- | --- | --- | --- | --- | --- | --- | --- |
| 76 | 23 | 61 | 16 | CC(=O)NCCCC[C@H](NC(=O)OCc1ccccc1)C(=O)Nc1ccc(C(OC2OC(COC(C)=O)C(OC(C)=O)C(OC(C)=O)C2NC(=O)CN=[N+]=[N-])c2ccnn2C)cc1 (stereo partly drawn) [Compound A8, 1-O-(1-(2-methylpyrazol-3-yl)-1-(4-(6-acetamido-2(S)-(benzyloxycarbonyl-amino)hexanamido)phenyl)methyl)-2-(2-azidoacetylamino)-2-deoxy-3,4,6-tri-O-acetyl-D-mannopyranoside] | 196 | 31 | 209 | 24 | 132 |
| 98 | 87 | 100 | 90 | CC(=O)NCCCC[C@H](NC(=O)OCc1ccccc1)C(=O)Nc1ccc(C(OC2OC(COC(C)=O)C(OC(C)=O)C(OC(C)=O)C2NC(=O)CN=[N+]=[N-])c2cn(C)cn2)cc1 (stereo partly drawn) [Compound A2, 1-O-(1-(1-methylimidazol-4-yl)-1-(4-(6-acetamido-2(S)-(benzyloxycarbonylamino)-hexanamido)phenyl)methyl)-2-(2-azidoacetylamino)-2-deoxy-3,4,6-tri-O-acetyl-D-mannopyranoside] | 250 | – | – | – | – |

Further lines, the compound ahead of its results:

| SMILES | Compound Remaining (%) Mouse 1 h [4] [%] | Compound Remaining (%) Mouse 4 h [4] [%] | Compound Remaining (%) Human 1 h [5] [%] | Compound Remaining (%) Human 4 h [5] [%] | activity at 25 µM [1] [%] | Labeling Efficiency AAM % [2, 6] [%] | Labeling Efficiency PBS % [2, 7] [%] | Labeling Efficiency AAM % [3, 6] [%] | Labeling Efficiency PBS % [3, 7] [%] |
| --- | --- | --- | --- | --- | --- | --- | --- | --- | --- |
| CC(=O)NCCCC[C@H](NC(=O)OCc1ccccc1)C(=O)Nc1ccc(C(OC2OC(COC(C)=O)C(OC(C)=O)C(OC(C)=O)C2NC(=O)CN=[N+]=[N-])c2cccs2)cc1 (stereo partly drawn) [Compound A4, 1-O-(1-(thien-2-yl)-1-(4-(6-acetamido-2(S)-(benzyloxycarbonylamino)-hexanamido)phenyl)methyl)-2-(2-azidoacetylamino)-2-deoxy-3,4,6-tri-O-acetyl-D-mannopyranoside] | 3 | 3 | 2 | 1 | 83 | – | – | – | – |
| CC(=O)NCCCC[C@H](NC(=O)OCc1ccccc1)C(=O)Nc1ccc(C(OC2OC(COC(C)=O)C(OC(C)=O)C(OC(C)=O)C2NC(=O)CN=[N+]=[N-])c2cnc[nH]2)cc1 (stereo partly drawn) [Compound A1, 1-O-(1-(imidazol-4-yl)-1-(4-(6-acetamido-2(S)-(benzyloxycarbonylamino)-hexanamido)phenyl)methyl)-2-(2-azidoacetylamino)-2-deoxy-3,4,6-tri-O-acetyl-D-mannopyranoside] | 91 | 72 | 94 | 70 | 103 | – | – | – | – |
| CC(=O)NCCCC[C@H](NC(=O)OCc1ccccc1)C(=O)Nc1ccc(C(OC2OC(COC(=O)Cc3cccnc3)C(OC(C)=O)C(OC(C)=O)C2NC(=O)CN=[N+]=[N-])c2ccnn2C)cc1 (stereo partly drawn) [Compound A12, 1-O-(1-(2-Methylpyrazol-3-yl)-1-(4-(6-acetamido-2(S)-(benzyloxycarbonyl-amino)hexanamido)phenyl)methyl)-2-(2-azidoacetylamino)-2-deoxy-3,4-di-O-acetyl-6-O-(pyridin-3-ylacetyl)-D-mannopyranoside] | 82 | 27 | 64 | 8 | 165 | – | – | – | – |
| CC(=O)NCCCC[C@H](NC(C)=O)C(=O)Nc1ccc(C(OC2OC(COC(C)=O)C(OC(C)=O)C(OC(C)=O)C2NC(=O)CN=[N+]=[N-])c2cncs2)cc1 (stereo partly drawn) [Compound A16, 1-O-(1-(Thiazol-5-yl)-1-(4-(2(S),6-diacetamidohexanamido)phenyl)methyl)-2-(2-azidoacetylamino)-2-deoxy-3,4,6-tri-O-acetyl-D-mannopyranoside] | 93 | 73 | 97 | 86 | 136 | – | – | – | – |
